Laboratory results reported in ChEMBL document CHEMBL1201862, “PubChem BioAssay data set” (2004).
The source made the active and inactive calls.

Tests used:
[1] = blockers of FN fibrillogenesis by fibroblasts – AH1F cells, Alexa488-FN fluorescence, cherry-picks, dose response (AID 1035475); assay type: functional, cell-based
[2] = viability loss in A549 lung cancer cells – cell-based, cherry-picks, […], cytotoxicity control, dose response (AID 1053119); assay type: functional
[3] = HGIII-sPLA2 enzyme inhibition potency – biochemical, QFRET, IC50, dose response (AID 743457);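 further: green fluorescence rise as the enzyme cleaves BODIPY PC-A2 in liposomes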
[4] = general mammalian cell viability loss – activator set, cherry-pick, cytotoxicity control for miR-122 modulator project, dose response (AID 720690); assay type: functional, cell-based;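 further: HEK293T human cells scored for general mammalian cytotoxicity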
[5] = HEK-293T viability loss after treatment – luminescence, T-cell screen hits, cytotoxicity control for TCR NF-kB inhibitor project, dose response (AID 489026); assay type: functional, cell-based;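 further: cells exposed to compound about 14 hours before the viability readout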
[6] = reduced cellular PGC1a acetyl-lysine signal – cell-based, cherry-picked samples, dose response (AID 720514); assay type: functional;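 further: potency may reflect raised or lowered acetylation signal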
cells [7] = test: cells
[8] = HPDE-C7 pancreatic duct cell viability loss – fluorescence, HTS (AID 430); assay type: functional, cell-based; details: Homo sapiens
Major prion protein = Major prion protein (Homo sapiens, UniProt P04156); assay type: functional, cell-based
[9] = activation of miR-122 Renilla sensor silencing – cell-based, Huh7 psiCHECK-miR122, Renilla luciferase, cherry-picked, dose response (AID 651956); assay type: functional;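 further: huh7 hepatoma cells stably carrying a psiCHECK-2 miR-122 sensor plasmid; renilla luciferase signal reporting endogenous miR-122 activity after 48 h compound exposure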
[10] = target: Sphingosine 1-phosphate receptor 2 (Homo sapiens, UniProt O95136); test: Dose Response Cell Based Assay for Antagonists of the S1P2 Receptor. [Related pubchem assays: 856, 736 ]; assay type: functional
Wee1-like protein kinase = Wee1-like protein kinase (Homo sapiens, UniProt P30291); test: Dose Response Cell-based Assay for Inhibitors of Wee1 Degradation. [Related pubchem assays: 1410, 1321 ]; assay type: functional
[11] = viability loss of HPDE-C7K cells – cell-based, fluorescence, HTS, primary screen (AID 431); assay type: functional; details: Homo sapiens
[12] = target: G2/mitotic-specific cyclin-B1 (Homo sapiens, UniProt P14635); test: Counterscreen assay for inhibitors of Wee1 degradation: dose response cell-based assay to identify inhibitors of cyclin B degradation. [Related pubchem assays: 1410, 1321 ]; assay type: functional
INS1 = test: INS-1E survival protection against cytokine death – cell-based, luminescence, retest, dose response (AID 449756); assay type: functional; details: Rattus norvegicus;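 further: cell death triggered by IL-1 beta plus TNF-alpha plus IFN-gamma mixture; protective hits raise ATP signal compared with cytokine alone wells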
[13] = general mammalian cell viability loss – inhibitor set, cherry-pick, set 2, cytotoxicity control for miR-122 modulator project, dose response (AID 720697); assay type: functional, cell-based
[14] = target: T1, Heat shock factor protein 1 (Mus musculus, UniProt P38532); test: decrease of HSF1-responsive luciferase luminescence – cell-based, NIH3T3, dose retest, confirmation (AID 2382); assay type: functional;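 further: NIH3T3 fibroblasts with HSF1-driven luciferase reporter stressed by proteasome inhibitor MG132; luminescence from HSF1-driven luciferase expression after 8 hours of MG132 stress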
T1 sequence (P38532 whole entry): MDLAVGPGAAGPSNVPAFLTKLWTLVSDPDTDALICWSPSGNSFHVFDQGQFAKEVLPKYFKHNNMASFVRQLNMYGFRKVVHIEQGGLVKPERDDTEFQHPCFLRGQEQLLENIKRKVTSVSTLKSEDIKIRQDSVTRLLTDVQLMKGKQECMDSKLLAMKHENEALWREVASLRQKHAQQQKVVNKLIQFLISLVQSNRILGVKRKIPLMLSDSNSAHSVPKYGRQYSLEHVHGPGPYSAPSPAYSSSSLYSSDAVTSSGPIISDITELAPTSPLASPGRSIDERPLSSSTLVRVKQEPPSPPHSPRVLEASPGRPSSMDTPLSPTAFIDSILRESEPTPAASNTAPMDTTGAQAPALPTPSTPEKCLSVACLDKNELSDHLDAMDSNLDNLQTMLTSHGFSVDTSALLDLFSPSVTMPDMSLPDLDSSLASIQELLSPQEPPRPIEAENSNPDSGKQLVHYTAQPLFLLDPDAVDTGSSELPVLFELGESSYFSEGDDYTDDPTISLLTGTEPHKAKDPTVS

[15] = viability loss in HepG2 hepatoma cells – cell-based, cherry-picks, set 5, cytotoxicity control, dose response (AID 1053118); assay type: functional
[16] = viability loss in HEK293 kidney cells – cell-based, cherry-picks, set 5, cytotoxicity control, dose response (AID 1053117); assay type: functional
[17] = viability loss in MITF-independent A375 cells – cell-based, CellTiter-Glo luminescence, dry powder, set 2, counter-screen for MITF inhibitor project, dose response (AID 624489); assay type: functional; details: A-375;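 further: actives are compounds lowering A375 viability meaning general cytotoxicity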
[18] = cytotoxicity in MITF-independent A375 cells – cell-based, CellTiter-Glo luminescence, dry powder, set 4, counter-screen for MITF inhibitor project, dose response (AID 624364); assay type: functional; details: A-375;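 further: A375 melanoma cells are MITF independent so this is a counter screen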
HEK293 = test: viability loss in HEK293T cells – cell-based, ATP luminescence, cherry-pick samples, cytotoxicity control, dose response (AID 687005); assay type: functional; details: Homo sapiens;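 further: cells exposed to compound for 48 hours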
[19] = HEK293 Cytotoxicity Assay Measured in Cell-Based System Using Plate Reader - 7071-01_Inhibitor_Dose_CherryPick_Activity_Set2.; assay type: functional
HeLa = test: viability loss in HeLa cells – cell-based, ATP luminescence, cherry-pick samples, cytotoxicity control, dose response (AID 687004); assay type: functional; details: Homo sapiens
[20] = target: Potassium channel subfamily K member 3 (Rattus norvegicus, UniProt O54912); test: SAR analysis for the identification of selective inhibitors of the two-pore domain potassium channel TASK1(KCNK3):Automated Electrophysiology.; assay type: functional
[21] = target: Potassium channel subfamily K member 3 (Homo sapiens, UniProt O14649); test: inhibition of human KCNK3 channel flux – CHO cells, FluxOR thallium flux, SAR follow-up (AID 652212); assay type: functional
cells [22] = details: A549
[23] = reduction of Shn3 3'UTR-driven luciferase in osteoblasts – cell-based, Clone20 osteoblasts, firefly luciferase, cherry-picked, dose response (AID 624132); assay type: functional;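 further: firefly luciferase luminescence from reporter carrying the Shn3 3'UTR in osteoblasts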
cells [24] = assay type: functional, cell-based; details: HEK-CNG
Galanin receptor type 3 = target: T2, Galanin receptor type 3 (Homo sapiens, UniProt O60755); test: Fluorescence-based cell-based primary high throughput dose response assay to identify antagonists of the Galanin Receptor 3 (GalR3).; assay type: functional
T2 sequence (O60755 whole entry): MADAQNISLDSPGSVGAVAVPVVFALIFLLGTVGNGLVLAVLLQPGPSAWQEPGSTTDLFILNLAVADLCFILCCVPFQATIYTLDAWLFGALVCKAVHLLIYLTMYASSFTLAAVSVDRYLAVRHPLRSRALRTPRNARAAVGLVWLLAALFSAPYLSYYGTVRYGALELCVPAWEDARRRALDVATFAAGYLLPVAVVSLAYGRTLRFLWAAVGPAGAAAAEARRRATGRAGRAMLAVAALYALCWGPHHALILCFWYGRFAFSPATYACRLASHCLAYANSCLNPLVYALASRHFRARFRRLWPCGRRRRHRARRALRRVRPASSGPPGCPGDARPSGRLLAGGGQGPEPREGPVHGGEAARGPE

[25] = Shn3 3'UTR reporter signal decrease – cell-based, Clone20 osteoblasts, firefly luciferase, cherry-pick, set 2, Schnurri-3 inhibitor project, dose response (AID 720490); assay type: functional;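 further: actives lower the luminescence signal as inhibitors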
[26] = loss of viability in HepG2 cells – cell-based, CellTiter-Glo, cherry-picked, cytotoxicity control for Shn3 inhibitor project, dose response (AID 624134); assay type: functional
[27] = target: COUP transcription factor 2 (Homo sapiens, UniProt P24468); test: Luminescence-based cell-based high throughput dose response assay to identify inhibitors of COUP-TFII (NR2F2).; assay type: functional;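 further: HEK293 cells transiently cotransfected with COUP-TFII expression vector and reporter; luciferase reporter luminescence driven by COUP-TFII from the pX2-168 reporter plasmid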
[28] = non-specific 3'UTR reporter inhibition in Clone20-Shn3RL – cell-based, Renilla luciferase, cherry-picked, counter-screen for Shn3 inhibitor project, dose response (AID 624133); assay type: functional

Which AC50 [1] does the source give for COc1ccc(Cl)cc1NC(=O)CSc1nc(Nc2ccccc2)nc(N2CCOCC2)n1 here?
The AC50 was 64.2 µM (active).

And the AC50 [2]?
Its AC50 is > 52 µM (inactive).

With Cc1ccc(NC(S)=NNC(=O)CSc2nnc(-c3ccc(Cl)cc3)n2C2CCCCC2)cc1 as the compound, how does the IC50 [3] read?
The IC50 was > 40.6 µM (inactive).

Which AC50 [4] does the source give for O=S(=O)(C/C(=C/CO)S(=O)(=O)c1ccccc1)c1ccccc1 here?
The AC50 was 4.73 µM (active).

What about the IC50 [5] of the same compound?
The IC50 was 67.1 µM (inactive).

What about the AC50 [6] of the same compound?
The AC50 was 3.28 µM (active).

And the IC50 (cells [7])?
Its IC50 is 42.9 µM (inactive).

And the EC50 [8]?
The EC50 was 1.92 µM (active).

And the IC50 (Major prion protein)?
Its IC50 is 9.14 µM (active).

What about the AC50 [9] of the same compound?
Its AC50 is 6.77 µM (active).

What about the IC50 [10] of the same compound?
The IC50 was 3.07 µM (active).

And the EC50 (Wee1-like protein kinase)?
The EC50 was > 5.53 µM (active).

And the EC50 [11]?
Its EC50 is 2.5 µM (active).

What about the EC50 [12] of the same compound?
Its EC50 is > 5.53 µM (active).

What about the AC50 (INS1) of the same compound?
Its AC50 is 9.58 µM (active).

And the AC50 [13]?
Its AC50 is 4.09 µM (active).

What about the EC50 [14] of the same compound?
Its EC50 is 4.31 µM (active).

With O=S(=O)(c1ccccc1F)N1CC[C@@H]2[C@@H](CO)Nc3ccc(-c4cccc(F)c4)cc3[C@@H]21 as the compound, how does the AC50 [15] read?
Its AC50 is 32.6 µM (active).

And the AC50 [1]?
Its AC50 is 39.9 µM (active).

And the AC50 [16]?
Its AC50 is > 52 µM (inactive).

What does the source list for C=CCNC1=C(N2CCN(C)CC2)C(=O)c2ccccc2C1=O?
AC50 [17]: 15.9 µM (active); AC50 [18]: 34.4 µM (active)

With CC(C)CC#Cc1ccc2c(c1)O[C@H](CN(C)C(=O)C1CCC1)[C@@H](C)CN([C@@H](C)CO)S2(=O)=O as the compound, how does the AC50 (HEK293) read?
Its AC50 is 15.8 µM (active).

What about the AC50 [19] of the same compound?
The AC50 was 15.8 µM (active).

And the AC50 (HeLa)?
The AC50 was > 52 µM (inactive).

Which results are given for Cc1cccc(C(=O)Nc2cccc(NC(=O)c3ccncc3)c2)c1?
IC50 [20]: 2.14 µM (active); IC50 [21]: 0.162 µM (active)

For Cc1noc(C)c1-c1ccc(C(=O)NCCc2ccccc2)c2occc12, which AC50 (cells [22]) is on record?
Its AC50 is > 52 µM (inactive).

What does the source list for O=C(CSc1nnc(-c2cccnc2)s1)Nc1ccnc2ccccc12?
AC50 [23]: 0.661 µM (active); EC50 (cells [24]): > 29.9 µM (inactive); IC50 (Galanin receptor type 3): 1.18 µM (active); AC50 [25]: 1.19 µM (active); AC50 [26]: 39.3 µM (active); IC50 [27]: 5.33 µM (active); AC50 [28]: 2.34 µM (active)
